Where a name gives a salt, the structure may show the parent alone. Read-outs that look alike come from different tables or passages of the source.
Experiments:
[1] = test system: ischemia-induced neurological symptoms in SHR SP; test: Improvement in ischemia-induced neurological symptoms in Spontaneously Hypertensive Rats Stroke Prone (SHR SP) caused by ligation of the bilateral common carotid arteries; assay type: in vivo, rat (SHR SP)
Method: The test animals employed were male adult SHR SPs (13 or 15 weeks old). They were used in groups each consisting of about 10 animals. Under halothane anesthesia, both common carotid arteries of each animal were ligated to prepare a brain ischemia model. The halothane anesthesia was stopped immediately after the ligation, and then the time taken to recover the righting reflex, the onset time of convulsions and the survival time were determined. The test solution was prepared in the same manner as described in Experiment 1 and was administered to the animal intraperitoneally 30 minutes before the ligation. A 0.5% CMC solution was administered to the control group in the same manner. The statistical analysis was carried out in a similar manner to that in Experiment 1. The statistical analysis of the survival rate was carried out by the X^2 test.

[2] = test system: ischemia-induced neurological symptoms in the Mongolian Gerbil; test: Improvement of ischemia-induced neurological symptoms in the Mongolian gerbil caused by ligation of the bilateral common carotid arteries for 30 minutes; assay type: in vivo; conditions: 100 mg/kg i.p. upon recommencement of blood flow
Method: The test animals employed were male adult Mongolian gerbils (16-20 weeks old). These were used in groups each consisting of from 10 to 20 animals. The bilateral common carotid arteries were occluded for 30 minutes under anesthesia with pentobarbital (30 mg/kg, intraperitoneally) and halothane (it was introduced to a mixture of 95% oxygen and 5% carbon dioxide at a concentration of 1.5% by volume) and then the occlusion was released to allow the blood to flow. The animal was then placed in a supine position, and we measured (1) the time taken from recommencement of blood flow until convulsions occurred and (2) the survival time. Observations to determine the onset time of convulsions and the survival time were continued for 6 and 7 hours, respectively, after recommencement of blood flow. […] The compound to be tested was suspended in a 0.5% w/v carboxymethyl cellulose (CMC) aqueous solution and administered intraperitoneally upon recommencement of blood flow in the common carotid arteries. On the other hand, a 0.5% CMC solution containing no test compound was administered likewise to a control group. Statistical analysis was carried out using the Mann-Whitney U-test between the control group and the test group.

[3] = test system: decerebrate rigidity in rats; test: Suppression of decerebrate rigidity in rats; assay type: in vivo, rat
[4] = test system: decerebrate rigidity in rats; test: Suppression of decerebrate rigidity in rats; assay type: in vivo, rat; remark: listed apart in the source
From the text: The suppression of decerebrate rigidity in laboratory animals, such as rats, is a well known model for control of human spasticity and/or rigidity.
In the test method, a rat was anesthetized with halothane and fixed on a stereotaxic apparatus (SR-5, Narishige). In accordance with the brain atlas by Pellegrino et al., [L. J. Pellegrino, A. S. Pellegrino & A. J. Cushman: A Stereotaxic Atlas of the Rat Brain, Plenum Press, New York and London (1967)], an electrode 0.7 mm in diameter, which was insulated except for 1 mm at the tip, was inserted bilaterally into the midbrain reticular formation (AP: 0, L: ±1.5, H: -3.0). A clip serving as the reference electrode was fixed on the temporal muscle. Through these electrodes, a high frequency electric current (100 KHz, 10 to 20 mA) was applied from a lesion generator (Glass Co., LM4A) for 2 to 3 minutes to cauterize electrically this brain region.
The rat was then immediately set free from the stereotaxic apparatus. A polyethylene cannula was inserted into the duodenum and fixed with an acrylic resin (Aron Alfa, Sankyo Co., Ltd.). After completion of these operations, halothane anesthesia was immediately discontinued.
After 1.5 hours, when the animal awoke from the anesthesia, the rat was fixed on an apparatus devised in our laboratory for a hind leg fixation. Both hind legs were fixed at the anterior part of the ankle joints. Both hindlimb paws were then pushed in 4 mm for 6 seconds in every minute. The resulting repulsive tension was drawn on a polygraph through a strain gauge.
The test compounds were suspended in a 0.5% w/v CMC (carboxymethyl cellulose) aqueous solution and were administered orally (p.o.) or intraperitoneally (i.p.).
The results are summarized in the following Table 7, where the compounds of the present invention are identified by the number of the foregoing Example in which each was prepared, Compound X is the known compound eperisone hydrochloride, and Compound Y is the known compound afloqualone.

spinal reflex in cats = test: Effect on spinal reflex in cats; assay type: in vivo, cat
Method: Adult cats weighing 3.0 to 4.5 kg each were used. After induction of anesthesia with ether, the animal was anesthetized by intravenous injection of 50 mg/kg of a-chloralose. After the trachea was cannulated, the animal was fixed on a stereotaxic apparatus, and the lumbosacral spinal cord was exposed by laminectomy from L3 to S1. The ventral roots of the right side were cut from L6 to S1 as distal as possible and the cut ends were ligated with cotton thread previously immersed in Ringer's solution. The exposed spinal cord was covered with warmed mineral oil and maintained at 37° C. The ventral root, either L7 or S1, was fixed on a pair of platinum wire electrodes. A pair of collar-type electrodes was implanted on the ipsilateral tibial nerve and the saphenous nerve, for stimulation. After completion of all these operations, the cat was immobilized with pancronium bromide (0.5 mg/kg, i.v.) and maintained by artificial respiration (40/minute). Recording was started at least 2 hours after withdrawal of ether anesthesia. A single square pulse (0.01 to 0.1 msecond pulse width, supramaximal intensity) was applied to the nerve at a frequency of 0.3 Hz from an electronic stimulator. […] In a similar manner to Experiment 2, the blood pressure, heart beat and body temperature of the animal were recorded and monitored. Compounds to be tested were also administered in a similar manner.

[5] = test system: decerebrate rigidity (cats); test: Suppression of decerebrate rigidity (cats); assay type: in vivo, cat
From the text: Adult cats each weight 3.0 to 4.5 kg were used. Under ether anesthesia, the trachea was cannulated and the common carotid arteries were ligated at both sides. The cat was decerebrated by suction at the precollicular level. Ether anesthesia was then immediately discontinued. A pair of needle electrodes was inserted into the neck muscle in order to pick up any EMG muscular discharges. The EMG discharge was amplified and recorded on a pen-writing recorder, along with an integration of the EMG discharge. Recording was started at least 2 hours after withdrawal of anesthesia. Blood pressure induced from the femoral artery, as well as body temperature and heart beat, were recorded and monitored throughout the experiment.
After stable EMG discharges were obtained, the test compounds suspended in 0.5% CMC solution were administered into the duodenum through a previously inserted cannula. The effect of the test compound was expressed as the ratio of the integrated EMG discharge after administration relative to the value before administration.

thiopental anesthesia = test: Potentiation of thiopental anesthesia (mice); assay type: in vivo, mouse (ddY strain); conditions: for Anesthesia time: thiopental 30 mg/kg after one hour
Method: In the test method, male adult mice of ddY strain each weighing 20 to 30 g were used as divided groups each made up of 5 to 7 mice. Test compounds suspended in 0.5% CMC solution were orally administered. After one hour, thiopental (30 mg/kg) was injected into the tail vein, and the time required for the mouse to recover the righting reflex was measured.

[6] = test system: survival time under hypoxic conditions; test: Effect on survival time under hypoxic conditions; assay type: in vivo, mouse (ddY strain); conditions: 4% oxygen, 96% nitrogen
From the text: The test animals employed were male adult mice (5 weeks old and about 30 g body weight) of the ddY strain. The animals were employed in groups, each containing from 7 to 17 animals. Each animal was given intraperitoneally a test compound in suspension (as in the preceding Experiments). Thirty (30) minutes after this administration, 2 or 3 animals were placed in a 1.5 liter gas chamber made of acrylate resin, and a mixture of 4% by volume oxygen and 96% nitrogen was supplied at the rate of 10 liters/minute. The time of death of the animal was measured (determined by the cessation of respiration).

[7] = 30 mg/kg i.p. 30 minutes before ligation
[8] = 100 mg/kg i.p. 30 minutes before ligation
[9] = Rattus norvegicus, po, 30 mg/kg p.o., read-out: Maximum inhibition
[10] = 100 mg/kg, administered as in Experiment 2
[11] = 100 mg/kg, after administration

O=c1c(Cl)c(-c2ccccc2)on1CC(O)CN1CCOCC1 (stereo not drawn) [2a hydrochloride]
Onset time of convulsions [1, 7]: 99.8 ± 27.8 min | Recovery time of righting reflex [1, 7]: 8.0 ± 1.7 min | Survival time [1, 7]: 232.1 ± 35.8 min | Onset time of convulsions [1, 8]: 103.5 ± 16.2 min | Recovery time of righting reflex [1, 8]: 7.6 ± 1.7 min | Survival time [1, 8]: 233.0 ± 28.7 min | Onset time of convulsions [2]: 289.4 min | Survival time [2]: 375.7 min

O=c1cc(-c2ccccc2)on1CC(O)CN1CCOCC1 (stereo not drawn) [Compound 1a]
Duration of the effect ([3]; 10 mg/kg i.d.): > 90 min | inhibition in vivo at 30 mg/kg ([3]; Rattus norvegicus, intraduodenal, 30 mg/kg i.d., read-out: Maximum inhibition): 60% | Onset of the effect ([4]; 10 mg/kg i.d.): 10 min | Duration of the effect ([4]; 30 mg/kg i.d.): > 180 min | Onset of the effect ([4]; 30 mg/kg i.d.): 5 min | Duration of the effect ([4]; 30 mg/kg i.p.): > 120 min | Onset of the effect ([4]; 30 mg/kg i.p.): 5 min | Duration of the effect ([4]; 30 mg/kg p.o.): > 160 min | Onset of the effect ([4]; 30 mg/kg p.o.): 10 min | inhibition in vivo at 10 mg/kg ([4]; Rattus norvegicus, intraduodenal, 10 mg/kg i.d., read-out: Maximum inhibition): 20% | inhibition in vivo at 30 mg/kg ([4]; Rattus norvegicus, ip, 30 mg/kg i.p., read-out: Maximum inhibition): 60% | inhibition in vivo at 30 mg/kg [4, 9]: 95% | Duration of the effect on spinal reflexes (spinal reflex in cats; 100 mg/kg): about 2 hours | Monosynaptic reflex (spinal reflex in cats; [10]): little affected | Polysynaptic reflex (spinal reflex in cats; [10]): remarkably inhibited | Spino-bulbo-spinal reflex (spinal reflex in cats; [10]): remarkably inhibited | Onset of the effect on spinal reflexes (spinal reflex in cats; [11]): 5 min | Time of maximum effect on spinal reflexes (spinal reflex in cats; [11]): 30 min | Mechanism shown by spinal reflexes (spinal reflex in cats; in vivo): interneuron blockers | Inhibition of decerebrate rigidity ([5]; 100 mg/kg intraduodenal, 5 minutes after administration): About 30% | Inhibition of decerebrate rigidity ([5]; 100 mg/kg intraduodenal, 1 hour after administration): about 65% | Duration of inhibitory effects ([5]; 100 mg/kg intraduodenal, throughout the observation period): ≥ 2 h | Side effects and duration of action compared with eperisone hydrochloride ([5]; compared with eperisone hydrochloride): weaker in side effects and of longer action than eperisone hydrochloride | Anesthesia time (thiopental anesthesia; 50 mg/kg p.o.): 288.5 ± 20.1 s | Anesthesia time (thiopental anesthesia; 100 mg/kg p.o.): 237.3 ± 25.5 s | Drowsiness (the adverse effect), implied (thiopental anesthesia; compared with afloqualone): induce drowsiness (the adverse effect) less than afloqualone | Prolongation of the duration of thiopental-induced anesthesia, in words (thiopental anesthesia; in comparison with eperisone hydrochloride): did not significantly prolong the duration of thiopental-induced anesthesia

NC(=O)OCC(O)COc1noc2ccc(Cl)cc12 (stereo not drawn) [Example 3, 3-(3-Carbamoyloxy-2-hydroxypropoxy)-5-chloro-1,2-benzisoxazole]
Duration of the effect ([4]; 20 mg/kg p.o.): > 90 min | Onset of the effect ([4]; 20 mg/kg p.o.): 5 min | Duration of the effect ([4]; 30 mg/kg p.o.): > 90 min | Onset of the effect ([4]; 30 mg/kg p.o.): 5 min | Duration of the effect ([4]; 100 mg/kg p.o.): > 90 min | Onset of the effect ([4]; 100 mg/kg p.o.): 5 min | inhibition in vivo at 20 mg/kg ([4]; Rattus norvegicus, po, 20 mg/kg p.o., read-out: Maximum inhibition): 60% | inhibition in vivo at 30 mg/kg [4, 9]: 90% | inhibition in vivo at 100 mg/kg ([4]; Rattus norvegicus, po, 100 mg/kg p.o., read-out: Maximum inhibition): 90% | Onset time of convulsions and survival time, in words ([1]; 30 mg/kg): prolonged onset time of convulsions, survival time significantly | Onset time of convulsions [1, 7]: 106.5 ± 9.9 min | Recovery time of righting reflex [1, 7]: 7.1 ± 0.9 min | Survival rate [1, 7]: 80.0% | Survival time [1, 7]: 392.2 ± 21.2 min | Onset time of convulsions and survival time, in words ([1]; 100 mg/kg): prolonged onset time of convulsions, survival time significantly | Survival rate of ischemic animals, in words ([1]; 100 mg/kg): increased survival rate of ischemic animals | Onset time of convulsions [1, 8]: 306.9 ± 17.1 min | Recovery time of righting reflex [1, 8]: 36.3 ± 16.7 min | Survival rate [1, 8]: 100% | Survival time [1, 8]: 420.0 ± 0.0 min | Survival time ([6]; 30 mg/kg i.p.): 213.0 ± 27.5 s | Survival time ([6]; 100 mg/kg i.p.): 446.7 ± 36.9 s

NC(=O)OCC(O)COc1cc(-c2cccc(Cl)c2)on1 (stereo not drawn) [Example 4, 3-(3-Carbamoyloxy-2-hydroxypropoxy)-5-(m-chlorophenyl)isoxazole]
Onset time of convulsions and survival time, in words ([1]; 100 mg/kg): prolonged onset time of convulsions, survival time significantly | Onset time of convulsions [1, 8]: 97.6 ± 18.0 min | Recovery time of righting reflex [1, 8]: 10.1 ± 1.8 min | Survival rate [1, 8]: 44.4% | Survival time [1, 8]: 322.4 ± 34.8 min | Survival time ([6]; 100 mg/kg i.p.): 178.9 ± 15.0 s | Onset time of convulsions [2]: 233.9 min | Recovery time of righting reflex [2]: 115.7 min | Survival time [2]: 344.2 min

Cl.OC(COc1cc(-c2ccccc2)on1)CN1CCOCC1 (stereo not drawn) [Example 20, 3-(2-Hydroxy-3-morpholinopropoxy)-5-phenylisoxazole hydrochloride]
Onset time of convulsions and survival time, in words ([1]; 30 mg/kg): prolonged onset time of convulsions, survival time significantly | Onset time of convulsions [1, 7]: 71.9 ± 9.3 min | Recovery time of righting reflex [1, 7]: 6.5 ± 0.6 min | Survival rate [1, 7]: 36.4% | Survival time [1, 7]: 295.9 ± 32.3 min | Onset time of convulsions and survival time, in words ([1]; 100 mg/kg): prolonged onset time of convulsions, survival time significantly | Onset time of convulsions [1, 8]: 176.7 ± 25.8 min | Recovery time of righting reflex [1, 8]: 6.9 ± 0.9 min | Survival rate [1, 8]: 63.6% | Survival time [1, 8]: 371.9 ± 26.3 min | Survival time ([6]; 30 mg/kg i.p.): 124.6 ± 15.4 s | Survival time ([6]; 100 mg/kg i.p.): 349.5 ± 59.1 s

Source: US5321037A, “Isoxazole derivatives for use as cerebro-active drugs and central muscle relaxants” (Sankyo Company, Limited, priority 1986, dated 1994)
